Read-outs that look alike come from different tables or passages of the source. One block for each compound: values may come before it. Where a SMILES comes first, the peptide text is derived from it. [ ]: non-standard residue; d: D form. pT = C[C@@H](OP(=O)(O)O)[C@H](N)C(=O)O
Assays:
Mad1CTD = assay: Mad1-Cdc20 interaction; assay type: binding
Source text: Response: Thank you for pointing out this paper. We have now mentioned this observation in the text: bottom of page 10.
2-1) Have the authors analyzed if Mad1 can bind directly to Cdc20 and is this influenced by Bub1 CD1 as proposed in Ji et al 2017? This would have important implications for understanding SAC signaling also in light of the two recent Science papers on this topic.
Response: We have not carefully analysed the Mad1-Cdc20 interaction. We have replicated […]
blotting) to Mad1CTD (data not shown).
2-2) The authors are focused on the model that Bub1 positions Cdc20 close to Mad1 but this model is not consistently supported by the literature (see for example: Di Fiore Dev Cell 2016 where a Cdc20 mutant unable to bind ABBA motifs still loads Mad2 and Zhang et al 2019, PMID: 30782962 where Bub1 without an ABBA motif still supports a robust […]
Response: Thank you for pointing this out. We agree that we predominately focused on the model that the Bub1 ABBA/KEN motifs position Cdc20 close to Mad1, and that we should have stated more clearly that this model is still debated.
Two changes to the text were made:
1) In the Introduction (page 2) where we had previously already discussed how this model is debated, we added the (Zhang et al, 2019) reference. […]
4) In figure 5A could the authors indicates the peaks they want the readers to focus on that are also discussed in the text. […]

Mad1^CTD = details: ref Ji et al, 2017b, Zhang et al, cited from earlier work
Source text: Formation of the Bub1‐Mad1 complex at kinetochores is dependent on phosphorylation of Bub1, a targeting mechanism conserved from yeast to humans (Heinrich et al, [2014]; London & Biggins, [2014a]; Silió et al, [2015]). In S. cerevisiae, phosphorylation of Bub1 at Thr453 and Thr455 by Mps1 promotes an interaction with Mad1^CTD, with pThr455 alone being sufficient for this interaction (London & Biggins, [2014a]; Ji et al, [2017b]). […] This is explained by our structure because a bulky phosphate at Thr464 would clash with the Bub1^CD1 binding interface of Mad1. Therefore, phosphorylation at Thr464 could provide a means to negatively regulate the Bub1‐Mad1 interaction in response to checkpoint signals ... || (+ 1 further places)

Peptide solubility = assay type: physicochemical; details: 20 mM Hepes, pH 7.5, 100 mM NaCl, 1 mM TCEP, without DMSO
Experimental: Our ITC and sedimentation equilibrium experiments to measure the stoichiometry of the Mad1^CTD‐Bub1^CD1 interaction were performed with concentrations of Mad1 at 100 µM or lower, and titrating Bub1 until a twofold‐fourfold molar excess was obtained. However, our ^31P NMR experiments were conducted with around 0.25 to 0.5 mM of each, and still only one binding event was detected. […] DMSO interfered with ITC enthalpy changes and the NMR signal from DMSO obscured the protein peaks. In contrast, our Mad1^CTD‐Bub1^CD1 crystal structure was obtained through co‐crystallization of Mad1^CTD at a final concentration of 0.35 mM and Bub1^CD1 at 2.5 mM in 5% DMSO. The use of millimolar concentrations of peptide, and the presence of DMSO and isopropanol, required for Mad1^CTD‐Bub1^CD1 crystallization, may explain the association of a second peptide in the crystallized complex. […]
which are affected are already mapped out in Fig 5B, and this can be tracked across Bub1CD1 […]
We thank the reviewer for their positive and constructive comments.
1) On page 2, the first line of the third paragraph, Msp1 should be Mps1.
Response: Thank you, we have corrected this error.
2) Please provide a figure to show the omit map (2Fo−Fc map) for the BUB1 CD1 peptide.
Response: We have created a 2Fo-Fc omit map and included it in Fig EV2D and updated the figure legend accordingly. […]
2) p. 5, near bottom. The authors state that the singly phosphorylated Bub1 peptide (on Thr-461) is less soluble than the double phosphorylated peptide (also phosphorylated on Ser-459), which may explain previous reports that P-Ser-459 contributes to binding Mad1-CTD. It would be helpful if the authors could quantify this reduced solubility.
Response: We realise that our comment on the reduced solubility of the singly phosphorylated pT461 peptide is likely confusing, so we have removed this comment.
In terms of quantifying the reduced solubility, we observed an approximately 2-fold reduction of the solubility of the singly phosphorylated peptide. […]

[1] = biological target: T1, human Mad1^CTD (WT) homodimer (Homo sapiens, UniProt Q9Y6D9); assay: ITC of Bub1^CD1 peptides binding to wild-type Mad1^CTD; details: N‐terminal tryptophan peptide
T1 construct: human Mad1^CTD homodimer (residues 597–718); double Strep His6-tag with TEV site (N, cleaved yes); made in house; host or cells: E. coli Rosetta 2 (DE3)
T1 sequence (Q9Y6D9 597-718): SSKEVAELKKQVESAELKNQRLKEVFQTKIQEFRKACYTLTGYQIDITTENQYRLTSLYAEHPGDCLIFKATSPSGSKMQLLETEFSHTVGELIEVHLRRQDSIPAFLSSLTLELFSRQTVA
Source text: The coding region of Mad1^597–719 was cloned by USER® (NEB) into a modified pRSFDuet‐1 vector (71341‐3, Sigma‐Aldrich) with an N‐terminal double Strep His6‐tag, followed by a tobacco etch virus (TEV) protease cleavage site (Demple & Linn, [1982]; Bitinaite et al, [1992]). Mad1 mutants were generated using the QuikChange™ Lightning Site‐Directed Mutagenesis Kit (Agilent), developed by Stratagene Inc. (La Jolla, CA) (Nøhr & Kristiansen, [2003]). Mad1 constructs were transformed into Rosetta™ 2 (DE3) Singles™ Competent Cells (71400, Novagen) for expression. Expression was induced with 0.5 mM IPTG and grown overnight at 18°C. Cells were lysed in 25 mM HEPES pH 8.1, 250 mM NaCl, 2 mM DTT, 5% glycerol, 2 mM EDTA supplemented with lysozyme, and Complete™ EDTA‐free protease inhibitors (Roche). Proteins were purified over a Strep‐Tactin Superflow Plus column (QIAGEN) and cleaved with TEV protease overnight at 4°C. The cleaved Mad1^CTD was then diluted to 50 mM NaCl, purified over an anion exchange (Resource Q, GE Healthcare) column, followed by size exclusion chromatography using a Superdex 75 Increase column (GE Healthcare). Mad1^CTD was concentrated to 35 mg/ml in a buffer of 20 mM HEPES pH 7.5, 100 mM NaCl and 1 mM TCEP.
Bub1^CD1 peptides were ordered from Designer Bioscience UK, at 95% purity. The full peptide sequence used in this study was (W)KVQP{pS}P{pT}VHTKEALGFIMNMFQAPTS. (W) = peptide with an additional N‐terminal tryptophan was used to confirm peptide concentration in stoichiometry studies.
Isothermal titration calorimetry (ITC) was performed using an Auto‐iTC200 instrument (Malvern Instruments, Malvern, UK) at 20°C. Mad1^CTD and Bub1^CD1 peptide mutants were dialysed into 20 mM HEPES pH 7.5, 100 mM NaCl, 1 mM TCEP. For each titration between 30–100 µM of Mad1 was pipetted into the calorimeter cell. The Bub1^CD1 peptides at 0.3–1.5 mM were titrated into the cell consisting of one 0.5 µl injection followed by 19 injections of 2 µl each. The changes in the heat released were integrated over the entire titration and fitted to a single‐site binding model using the MicroCal PEAQ‐ITC Analysis Software 1.0.0.1258 (Malvern Instruments). Titrations were performed in triplicate. Calculations for stoichiometry were based on the molar concentrations of dimeric Mad1^CTD.

Compound: phosphorylated Bub1-Bub3: phosphorylated Bub1-Bub3 complex
effect on the Mad1-Cdc20 interaction, in words (Mad1CTD): does not detectably enhance the Mad1-Cdc20 interaction

reduction of solubility versus doubly phosphorylated peptide (Peptide solubility): approximately 2 fold
solubility (Peptide solubility): about 0.7 mM
Compound: CC[C@H](C)[C@H](NC(=O)[C@H](Cc1ccccc1)NC(=O)CNC(=O)[C@H](CC(C)C)NC(=O)[C@H](C)NC(=O)[C@H](CCC(=O)O)NC(=O)[C@H](CCCCN)NC(=O)[C@@H](NC(=O)[C@H](Cc1c[nH]cn1)NC(=O)[C@@H](NC(=O)[C@@H](NC(=O)[C@@H]1CCCN1C(=O)[C@H](CO)NC(=O)[C@@H]1CCCN1C(=O)[C@H](CCC(N)=O)NC(=O)[C@@H](NC(=O)[C@@H](N)CCCCN)C(C)C)[C@@H](C)OP(=O)(O)O)C(C)C)[C@@H](C)O)C(=O)N[C@@H](CCSC)C(=O)N[C@@H](CC(N)=O)C(=O)N[C@@H](CCSC)C(=O)N[C@@H](Cc1ccccc1)C(=O)N[C@@H](CCC(N)=O)C(=O)N[C@@H](C)C(=O)N1CCC[C@H]1C(=O)N[C@H](C(=O)N[C@@H](CO)C(=O)O)[C@@H](C)O [SpT* CD1] (H-KVQPSP[pT]VHTKEALGFIMNMFQAPTS-OH; N-terminus and C-terminus assumed)
Mad1 binding reported previously, in words (Mad1^CTD; listed as pThr461): sufficient to promote a strong Bub1‐Mad1 interaction
Mad1 binding reported previously, in words (Mad1^CTD; listed as singly phosphorylated pThr461 peptide): significant reduction in binding

KD and stoichiometry compared with peptide lacking N-terminal Trp [1]: The same KD and stoichiometry
Compound: (W)KVQP{pS}P{pT}VHTKEALGFIMNMFQAPTS [peptide with an additional N‐terminal tryptophan was used to confirm peptide concentration in stoichiometry studies]
